Source: patent US20040209312A1, “Identifying and reducing the allergenicity of food proteins” (priority 2001, published 2004)

Tested on: naïve human CD4+ T-cells and dendritic cells
Assay type: cell-based
Details: for T-cell epitope designation: Ber e 1 dataset, background 4.27%

| Substance | positive control response (T-cell proliferation) (positive control antigen in all tests reported) | T-cell epitope designation (5 μM peptide) | percentage of the donor pool that responded with a baseline-normalized response of 2.95 or better (percent responders) (Ber e 1 15-mer peptide set, 5 μM peptide, human donors) |
| --- | --- | --- | --- |
| tetanus toxoid: positive control antigen in the T-cell proliferation assay [reference compound] | robust positive control responses |  |  |
| LRMMMMRMQQEEMQP [Peptide # 16] |  | does not reach any epitope designation |  |
| MQPRGEQMRRMMRLA [peptide #20] |  | minor epitopes |  |
| RQQMLSHCRMYMRQQ [peptide #4] |  | reached the three-fold cut-off | 18.48% |
| LEGMDESCRCEGLRM [peptide #12] |  | minor epitopes |  |
